The results in this text go back to ChEMBL document CHEMBL4414659, “Chemical Constituents from the Aerial Parts of Agastache rugosa and Their Inhibitory Activities on Prostaglandin E2 Production in Lipopolysaccharide-Treated RAW 264.7 Macrophages” (J Nat Prod, 2019).

The structures appear in SMILES notation. pIC50: −log10 of the molar value. Bounds are passed on as bounds.

The test system of the test is RAW264.7. The test is described as follows: Antiinflammatory activity against LPS-stimulated mouse RAW264.7 cells assessed as decrease in PGE2 production preincubated for 1 hr followed by LPS stimulation and measured after 24 hrs by ELISA. Format: functional, cell-based.

What is called pIC50 is the IC50 on a negative log10 scale, so that one unit is a factor of ten. With `O=c1cc(-c2ccc(O)cc2)oc2cc(O)cc(O)c12` [APIGENIN], the pIC50 is 4.87.

Regarding `COC(=O)[C@@H](Cc1ccc(O)c(O)c1)OC(=O)/C=C/c1ccc(O)c(O)c1` [METHYL ROSMARINATE], the pIC50 is 4.95.

On to `COc1ccc(-c2cc(=O)c3c(O)cc(O[C@@H]4O[C@H](CO)[C@@H](O)[C@H](OC(C)=O)[C@H]4O)cc3o2)cc1`, for which the pIC50 is < 4.30.

In the case of `C=CCc1ccc(O)c(O[C@@H]2O[C@H](CO)[C@@H](O)[C@H](O)[C@H]2O)c1`, the pIC50 is 5.39.

For the compound `COc1cc(/C=C/C(=O)OC[C@H]2O[C@@H](Oc3ccccc3C(=O)O)[C@H](O)[C@@H](O)[C@@H]2O)ccc1O`, the negative logarithm of the IC50 (pIC50) is 4.47.

On to `C=CCc1ccc(O[C@@H]2O[C@H](COC(C)=O)[C@@H](O)[C@H](O)[C@H]2O)cc1`, for which the pIC50 is 4.31.

In the case of `COc1ccc(-c2cc(=O)c3c(O)cc(O[C@@H]4O[C@H](CO)[C@@H](O)[C@H](O)[C@H]4O)cc3o2)cc1` [TILIANINE], the pIC50 is 5.13.

Regarding `COC(=O)/C=C/c1ccc(O)c(O)c1` [METHYLCAFFEATE], the negative logarithm of the IC50 (pIC50) was 5.41.

In the case of `O=c1cc(-c2ccc(O)cc2)oc2cc(O[C@@H]3O[C@H](CO)[C@@H](O)[C@H](O)[C@H]3O)cc(O)c12` [APIGETRIN], the pIC50 is < 4.30.

`C=CCc1ccc(O[C@@H]2O[C@H](COC(=O)CC(=O)OC)[C@@H](O)[C@H](O)[C@H]2O)cc1`: the pIC50 is 4.84.

Regarding `COc1ccc([C@@H]2CC(=O)c3c(O)cc(O[C@@H]4O[C@H](CO)[C@@H](O)[C@H](O)[C@H]4O)cc3O2)cc1`, the pIC50 is < 4.30.

`O=c1cc(-c2ccc(O)c(O)c2)oc2cc(O[C@@H]3O[C@H](CO)[C@@H](O)[C@H](O)[C@H]3O)cc(O)c12` [GALUTEOLIN]: the pIC50 was 5.21.

In the case of `COc1ccc(-c2cc(=O)c3c(O)cc(O[C@@H]4O[C@H](COC(=O)CC(=O)O)[C@@H](O)[C@H](OC(C)=O)[C@H]4O)cc3o2)cc1`, the pIC50 is 4.77.

With `O=C(CCc1ccc(O)cc1)c1c(O)cc(O)cc1O[C@@H]1O[C@H](CO)[C@@H](O)[C@H](O)[C@H]1O` [PHLORIZIN], the pIC50 was 4.84.

Take `CCOC(=O)/C=C/c1ccc(O)c(O)c1` [ETHYL CAFFEATE]: the pIC50 is 5.70.

Consider `C=CCc1ccc(O[C@@H]2O[C@H](CO)[C@@H](O)[C@H](O)[C@H]2O)cc1`, for which the pIC50 was 4.74.

Regarding `COc1ccc(-c2cc(=O)c3c(O)cc(O[C@@H]4O[C@H](COC(=O)CC(=O)O)[C@@H](O)[C@H](O)[C@H]4O)cc3o2)cc1`, the pIC50 is 4.73.

`O=c1cc(-c2ccc(O)c(O)c2)oc2cc(O)cc(O)c12` [LUTEOLIN]: the pIC50 is 5.09.

Take `CCOC(=O)[C@@H](Cc1ccc(O)c(O)c1)OC(=O)/C=C/c1ccc(O)c(O)c1` [ETHYL ROSMARINATE]: the pIC50 is 5.37.

In the case of `CS(=O)(=O)Nc1ccc([N+](=O)[O-])cc1OC1CCCCC1` [NS-398], the pIC50 was 8.17.

With `COc1cc(/C=C/C(=O)OC[C@H]2O[C@@H](OCC/C=C\C[C@H]3C(=O)CC[C@@H]3CC(=O)O)[C@H](O)[C@@H](O)[C@@H]2O)ccc1O`, the pIC50 is < 4.30.

For the compound `COc1ccc(-c2cc(=O)c3c(O)cc(O[C@@H]4O[C@H](COC(=O)CC(=O)O)[C@@H](O)[C@H](O)[C@H]4OC(C)=O)cc3o2)cc1`, the pIC50 was 4.54.

For `O=C(/C=C/c1ccc(O)c(O)c1)O[C@H](Cc1ccc(O)c(O)c1)C(=O)O` [ROSMARINIC ACID], the pIC50 was 4.47.

Take `C=CCc1ccc(O[C@@H]2O[C@H](CO)[C@@H](O)[C@H](O)[C@H]2O)c(OC)c1` [CITRUSIN C]: the pIC50 is 5.77.

In the case of `COc1ccc(-c2cc(=O)c3c(O)cc(O[C@@H]4O[C@H](CO)[C@@H](O)[C@H](O)[C@H]4O)cc3o2)cc1O`, the pIC50 is < 4.30.

As for `C=CCc1ccc(O[C@@H]2O[C@H](CO)[C@@H](O)[C@H](O)[C@H]2O)c(O)c1`, the pIC50 was 5.49.

In the case of `COc1ccc(C(=O)O)cc1` [p-ANISIC ACID], the pIC50 is < 4.30.

Take `COc1ccc(-c2cc(=O)c3c(O)cc(O)cc3o2)cc1O` [DIOSMETIN]: the pIC50 is 5.08.

With `O=C(/C=C/c1ccc(O)c(O)c1)O/C=C\c1ccc(O)c(O)c1` [NEPETOIDIN B], the pIC50 was 5.42.

In the case of `COc1ccc(-c2cc(=O)c3c(O)cc(O)cc3o2)cc1` [ACACETIN], the pIC50 was 5.21.

For `CC1=CC(=O)CC(C)(C)[C@H]1/C=C/[C@@H](C)O[C@@H]1O[C@H](CO)[C@@H](O)[C@H](O)[C@H]1O`, the pIC50 was 4.77.

`COc1ccc(-c2cc(=O)c3c(O)cc(O[C@@H]4O[C@H](CO)[C@@H](O)[C@H](O)[C@H]4OC(C)=O)cc3o2)cc1`: the pIC50 is 5.33.
